For six compounds, IC50, melting point and solubility results are on record in patent US8846694B2, “Pyrrolidone derivatives for use as MetAP-2 inhibitors” (Merck Patent GmbH, priority 2008, dated 2014).

Converted amounts (≈) assume the structure as drawn. A value given as a limit tells only on which side of the number the result lay.

Data set [1] concerns the target MetAP-2 (Homo sapiens, UniProt P50579). As to the kind of experiment: MetAP-2 activity measurement (coupled enzymatic reactions, substrate Met-Arg-Ser, photometric at 450 nm). The data set is classed as biochemical. The settings on record: read-out: IC50 enzyme (Inhibition of MetAP-2). The essentials: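 Human MetAP-2 cleaves Met-Arg-Ser; the freed methionine is oxidized by L-amino acid oxidase, and the resulting H2O2 drives peroxidase oxidation of dianisidine, read continuously at 450 nm. Activity is taken as the slope in the visually linear region.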

Data set [2] can be described thus: Shake flask solubility measurement. The data set is classed as physicochemical. The settings on record: shake flask, buffer, shaken at 37° C. for 24 h; for solubility at 24 h: sodium phosphate/sodium chloride buffer, aqueous buffer, thermodynamic from solid. As to the method:
Determination by Shake Flask Solubility Measurement
• Eluent A: 2 ml of diethylamine, for synthesis+1000 ml of methanol, LiChrosolv • Eluent B: 5 g of ammonium acetate, for analysis+5 ml of methanol, LiChrosolv+995 ml of ultrapure water Sample Solvent:
Buffer: 3.954 g of sodium dihydrogenphosphate monohydrate+6.024 g of sodium chloride+950 ml of ultrapure water the pH is adjusted using 0.1 M NaOH or 0.1 M HCl.
The samples are shaken at 37° C. and 450 rpm for 24 h.
After about 7 h, the pH of the samples is checked and adjusted if necessary. It is also checked whether the sample is still present in excess.
Just before the end of the 24 h shaking time, the samples are again checked for pH and a precipitate.

Sequence of MetAP-2 (P50579 whole entry, species assumed): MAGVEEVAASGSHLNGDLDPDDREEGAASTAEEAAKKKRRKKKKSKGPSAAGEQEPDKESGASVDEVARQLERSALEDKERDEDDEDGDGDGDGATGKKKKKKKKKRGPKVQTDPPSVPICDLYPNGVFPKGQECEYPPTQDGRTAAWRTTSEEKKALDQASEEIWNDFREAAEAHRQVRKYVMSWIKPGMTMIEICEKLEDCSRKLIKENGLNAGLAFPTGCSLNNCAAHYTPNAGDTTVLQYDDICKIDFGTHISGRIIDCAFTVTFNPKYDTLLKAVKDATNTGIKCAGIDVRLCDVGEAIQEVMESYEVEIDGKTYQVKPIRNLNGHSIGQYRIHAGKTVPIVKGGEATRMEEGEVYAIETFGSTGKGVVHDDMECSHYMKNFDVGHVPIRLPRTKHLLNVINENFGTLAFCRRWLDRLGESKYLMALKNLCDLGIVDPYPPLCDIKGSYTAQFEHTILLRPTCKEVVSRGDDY

As usually defined, the IC50 is the concentration needed to halve the response being measured. Usually melting point stands for the temperature of the solid-liquid transition. Turning to `O=Cc1ccc(OC[C@H]2CCCN2c2ncnc3[nH]cnc23)c2ccccc12` [A2, 4-[(R)-1-(9H-purin-6-yl)pyrrolidin-2-ylmethoxy]naphthalene-1-carbaldehyde], the melting point was in the range of 167 to 168 °C. Moreover, the IC50 in data set [1] lay in the range of 10 to 1000 nM.
By solubility is commonly meant the dissolved amount per volume that the medium holds. A higher solubility goes with much dissolved substance. For the compound `O=C(c1ccc(CC[C@H]2CCCN2c2ncnc3[nH]cnc23)c2ccccc12)N1CCOCC1` [Morpholin-4-yl-(4-{2-[(S)-1-(9H-purin-6-yl)pyrrolidin-2-yl]ethyl}naphthalen-1-yl)-methanone], the solubility at 24 h in data set [2] came to 108 µg/mL (≈ 237 µM).
In data set [2], `Clc1cccc(OC[C@H]2CCCN2c2ncnc3[nH]cnc23)c1Cl` [6-[(R)-2-(2,3-dichlorophenoxymethyl)pyrrolidin-yl]-9H-purine, reference compound] registered a solubility of less than 1 µg/mL.
In turn, `O=C(O)/C=C1/CCc2c(OC[C@H]3CCCN3c3ncnc4[nH]cnc34)cccc2C1=O` [[1-oxo-5-[(R)-1-(9H-purin-6-yl)pyrrolidin-2-ylmethoxy]-3,4-dihydro-1H-naphthalen-(2Z)-ylidene]acetic acid] registered a solubility at 24 h in data set [2] greater than 3800 µg/mL.
The compound `F[C@H]1C[C@H](COc2ccccc2Cl)N(c2ncnc3[nH]cnc23)C1` [A7, 6-[(2R,4S)-2-(2-chlorophenoxymethyl)-4-fluoropyrrolidin-1-yl]-9H-purine] gave a melting point of 143 to 144 °C. In data set [1], the IC50 is 1000 to 10000 nM.
`O=C(c1ccc(CCC2CCCN2c2ncnc3[nH]cnc23)c2ccccc12)N1CCOCC1` (racemic) [A6, morpholin-4-yl-(4-{2-[-1-(9H-purin-6-yl)pyrrolidin-2-yl]ethyl}naphthalen-1-yl)methanone] showed a melting point of 158 to 160 °C.
